Values of other authors in PMC4168267 (Scientific Reports, 2014).

What was measured:
Gαi1-GDP = Gαi1-GDP (Homo sapiens, UniProt P63096); conditions: R6A reference peptide of the competition assay
chymotrypsin = test: chymotrypsin

Sequence of Gαi1-GDP (P63096 whole entry): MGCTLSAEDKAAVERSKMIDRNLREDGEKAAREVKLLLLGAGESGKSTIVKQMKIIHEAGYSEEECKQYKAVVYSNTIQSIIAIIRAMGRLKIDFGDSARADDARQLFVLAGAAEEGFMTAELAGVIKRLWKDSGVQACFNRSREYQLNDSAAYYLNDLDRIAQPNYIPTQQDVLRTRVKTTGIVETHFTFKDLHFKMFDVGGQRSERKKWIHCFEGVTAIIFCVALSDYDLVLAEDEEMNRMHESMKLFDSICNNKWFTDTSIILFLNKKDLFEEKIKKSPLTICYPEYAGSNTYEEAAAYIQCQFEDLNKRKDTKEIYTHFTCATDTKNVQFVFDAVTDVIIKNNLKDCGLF

| Kd (Gαi1-GDP) | cleaved bond (chymotrypsin) | not cleaved (chymotrypsin) | Sequence |
| --- | --- | --- | --- |
| 60 nM |  |  | MSQTKRLDDQLYWWEYL [Peptide R6A] |
|  | Y5-E, major | intact | MITWYEFVAGTK |
